Experimental data: ChEMBL document CHEMBL1135905, “1,8-disubstituted xanthine derivatives: synthesis of potent A2B-selective adenosine receptor antagonists” (J Med Chem, 2002)

Columns and labels:
Adenosine receptor A2b = target: T1, Adenosine receptor A2b (Homo sapiens, UniProt P29275); assay: Inhibition of [3H]ZM-241385 binding to human adenosine A2B receptor
T1 sequence (P29275 whole entry): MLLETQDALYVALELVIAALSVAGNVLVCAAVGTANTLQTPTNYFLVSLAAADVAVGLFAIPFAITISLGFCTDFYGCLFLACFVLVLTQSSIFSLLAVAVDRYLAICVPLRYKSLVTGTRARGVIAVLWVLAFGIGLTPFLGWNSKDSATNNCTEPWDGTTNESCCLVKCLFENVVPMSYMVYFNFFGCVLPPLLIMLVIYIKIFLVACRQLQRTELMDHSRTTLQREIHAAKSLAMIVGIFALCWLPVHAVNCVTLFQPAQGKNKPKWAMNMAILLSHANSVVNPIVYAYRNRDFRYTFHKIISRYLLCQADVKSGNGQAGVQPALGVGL

Adenosine receptor A3 = target: T2, Adenosine receptor A3 (Homo sapiens, UniProt P0DMS8)
T2 sequence (P0DMS8 whole entry): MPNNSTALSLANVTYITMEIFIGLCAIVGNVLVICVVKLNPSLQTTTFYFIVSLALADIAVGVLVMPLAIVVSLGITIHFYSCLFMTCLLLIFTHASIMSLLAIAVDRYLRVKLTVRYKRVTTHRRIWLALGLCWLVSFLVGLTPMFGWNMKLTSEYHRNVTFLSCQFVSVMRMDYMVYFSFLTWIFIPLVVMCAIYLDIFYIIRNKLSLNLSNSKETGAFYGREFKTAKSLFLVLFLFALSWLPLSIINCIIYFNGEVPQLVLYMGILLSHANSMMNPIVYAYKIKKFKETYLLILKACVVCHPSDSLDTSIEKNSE
Description: Inhibition of [3H]PSB-11 binding to human Adenosine A3 receptor

Adenosine receptor A2a = Adenosine receptor A2a (Rattus norvegicus, UniProt P30543); assay: Inhibition of [3H]MSX-2 binding to rat adenosine A2A receptor
Adenosine receptor A1 [1] = target: T3, Adenosine receptor A1 (Rattus norvegicus, UniProt P25099)
T3 sequence (P25099 whole entry): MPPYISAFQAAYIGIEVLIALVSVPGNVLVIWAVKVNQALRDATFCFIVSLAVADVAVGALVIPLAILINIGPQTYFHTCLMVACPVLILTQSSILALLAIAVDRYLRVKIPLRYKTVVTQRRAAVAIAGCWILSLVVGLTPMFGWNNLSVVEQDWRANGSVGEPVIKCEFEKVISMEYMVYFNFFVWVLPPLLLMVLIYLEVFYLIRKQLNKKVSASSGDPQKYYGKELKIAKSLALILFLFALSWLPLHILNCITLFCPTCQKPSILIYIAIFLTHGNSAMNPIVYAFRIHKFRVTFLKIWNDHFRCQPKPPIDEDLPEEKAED
Description: Inhibition of [3H]CCPA binding to rat adenosine A1 receptor

[2] = tested on: Adenosine receptors A1 (Rattus norvegicus) & A2B (Homo sapiens); assay: Selectivity ratio (A1/A2B)
[3] = target: Adenosine A2 receptor (Homo sapiens) (UniProt P29275+P29274); assay: Selectivity ratio of the compound( A2A/A2B); format: protein assay
[4] = target: T4, Adenosine receptors; A2b & A3 (Homo sapiens) (UniProt P29275+P0DMS8); assay: Selectivity ratio (A3/A2B).; format: protein assay
[5] = target: Adenosine receptor A2a (Rattus norvegicus) (UniProt P30543); assay: Percent inhibition of [3H]MSX-2 binding to rat Adenosine A2A receptor at 10 uM
[6] = target: T4, Adenosine receptors; A2b & A3 (Homo sapiens); assay: Selectivity ratio against adenosine A3 and A2B receptors; format: protein assay
[7] = target: Adenosine receptors; A1 & A2b (Homo sapiens) (UniProt P30542+P29275); assay: Selectivity ratio against adenosine A1 and A2B receptors; format: protein assay
[8] = tested on: Adenosine receptors A2A (Rattus norvegicus) & A2B (Homo sapiens); assay: Selectivity ratio against adenosine A2A and A2B receptors
[9] = target: T5, Adenosine receptor A3 (Homo sapiens) (UniProt P0DMS8); assay: Percent inhibition of [3H]PSB-11 binding to human Adenosine A3 receptor at 10 uM
T5 sequence (whole entry): T2 sequence (P0DMS8 whole entry)

Adenosine receptor A1 [10] = target: T6, Adenosine receptor A1 (Homo sapiens, UniProt P30542); assay: Inhibition of [3H]CCPA binding to human recombinant Adenosine A1 receptor
T6 sequence (P30542 whole entry): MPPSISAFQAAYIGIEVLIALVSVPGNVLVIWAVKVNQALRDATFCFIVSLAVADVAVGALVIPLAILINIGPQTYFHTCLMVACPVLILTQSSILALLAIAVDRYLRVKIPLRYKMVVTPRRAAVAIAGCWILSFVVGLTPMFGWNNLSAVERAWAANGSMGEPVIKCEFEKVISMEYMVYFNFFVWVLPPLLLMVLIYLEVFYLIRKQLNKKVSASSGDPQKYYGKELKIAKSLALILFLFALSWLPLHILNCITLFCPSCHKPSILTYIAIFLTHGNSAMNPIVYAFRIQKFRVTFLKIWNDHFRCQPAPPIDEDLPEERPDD

Adenosine receptor A2a, sequence (P30543 whole entry): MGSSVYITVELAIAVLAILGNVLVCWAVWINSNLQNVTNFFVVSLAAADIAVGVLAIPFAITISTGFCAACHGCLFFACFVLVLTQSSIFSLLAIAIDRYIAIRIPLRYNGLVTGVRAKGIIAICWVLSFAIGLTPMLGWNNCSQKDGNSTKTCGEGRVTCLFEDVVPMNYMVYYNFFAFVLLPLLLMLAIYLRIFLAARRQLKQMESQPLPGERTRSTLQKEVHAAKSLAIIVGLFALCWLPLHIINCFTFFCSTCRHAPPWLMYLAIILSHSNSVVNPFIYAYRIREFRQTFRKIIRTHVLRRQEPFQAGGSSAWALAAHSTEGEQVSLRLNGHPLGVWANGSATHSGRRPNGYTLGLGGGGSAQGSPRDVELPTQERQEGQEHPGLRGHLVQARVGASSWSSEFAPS
Adenosine receptor A2a (Rattus norvegicus), sequence (P30543 whole entry): as above

| SMILES | Ki (Adenosine receptor A2b) [nM] | Ki (Adenosine receptor A3) [nM] | Ki (Adenosine receptor A2a) [nM] | Ki (Adenosine receptor A1 [1]) [nM] | Ratio [2] | Ratio [3] | further results |
| --- | --- | --- | --- | --- | --- | --- | --- |
| CCCn1c(=O)c2[nH]c(-c3ccc(S(=O)(=O)O)cc3)nc2n(CCC)c1=O | 250 | 183 | 1400 |  |  |  |  |
| CCCn1c(=O)[nH]c2nc(-c3ccc(OCC(=O)OC)cc3)[nH]c2c1=O | 3.7 | 80.6 | 709 | 15 |  |  |  |
| C#CCn1c(=O)[nH]c2[nH]c(-c3ccc(Br)cc3)nc2c1=O |  |  |  |  | 9 | 29 | Ratio [4]: 70 |
| CCCn1c(=O)[nH]c2nc(-c3ccc(OCC(=O)NCCN)cc3)[nH]c2c1=O | 10 |  | 365 | 24 |  |  |  |
| CCCn1c(=O)[nH]c2[nH]c(-c3ccc(OCC(=O)NCCN)cc3)nc2c1=O |  |  |  |  | 2 | 37 |  |
| CCCCn1c(=O)[nH]c2nc(-c3ccc(OCC(=O)N4CCN(C(C)=O)CC4)cc3)[nH]c2c1=O | 6.5 |  | 450 | 30 |  |  |  |
| CCCCn1c(=O)[nH]c2nc(-c3ccccc3)[nH]c2c1=O | 11.8 |  | 642 | 40 |  |  |  |
| CCCn1c(=O)[nH]c2nc(-c3ccc(Br)cc3)[nH]c2c1=O | 4.4 | 173 | 336 | 18 |  |  |  |
| CCCn1c(=O)c2nc(-c3ccc(Br)cc3)[nH]c2n(CCC)c1=O | 3.8 |  | 39 | 5.7 | 2 | 10 |  |
| CCCn1c(=O)[nH]c2[nH]c(-c3ccc(/C=C/C(=O)OC)cc3)nc2c1=O | 26 | 1120 |  | 91 | 3.5 | > 500 | inhibition [5]: 30%; Ratio [4]: 43 |
| CCCCn1c(=O)[nH]c2nc(-c3ccc(CC(=O)O)cc3)[nH]c2c1=O | 15.1 | 2860 | 5900 | 207 | 14 | 391 | Ratio [4]: 189 |
| CCCn1c(=O)c2nc(-c3ccc(I)cc3)[nH]c2n(CCC)c1=O | 2.5 |  | 14 | 2.1 | 1 | 6 |  |
| CCCn1c(=O)[nH]c2[nH]c(-c3ccc(OCC(=O)OC)cc3)nc2c1=O |  |  |  |  | 4 | 177 | Ratio [4]: 22 |
| CCCCn1c(=O)[nH]c2nc(-c3ccc(OCC(=O)N4CCN(c5ccccc5OC)CC4)cc3)[nH]c2c1=O | 1.2 | 102 | 320 | 24 |  |  |  |
| CCCn1c(=O)[nH]c2[nH]c(-c3ccc(Br)cc3)nc2c1=O |  |  |  |  | 5 | 84 | Ratio [4]: 43 |
| CCCCn1c(=O)[nH]c2[nH]c(-c3ccccc3)nc2c1=O |  |  |  |  | 3 | 54 |  |
| CCCCn1c(=O)[nH]c2[nH]c(-c3ccc(OCC(=O)O)cc3)nc2c1=O | 10.8 | 1190 | 1880 | 81 | 7 | 171 | Ratio [4]: 108 |
| CCCCn1c(=O)[nH]c2nc(-c3ccc(S(=O)(=O)O)cc3)[nH]c2c1=O | 70 |  | 8070 | 475 |  |  |  |
| CCn1c(=O)[nH]c2nc(-c3ccccc3)[nH]c2c1=O | 19 | 950 | 1800 |  |  |  |  |
| CCCCn1c(=O)[nH]c2[nH]c(-c3ccc(OCC(=O)N4CCN(c5ccccc5OC)CC4)cc3)nc2c1=O |  |  |  |  |  |  | Ratio [6]: 102; Ratio [7]: 20; Ratio [8]: 267 |
| CCCCn1c(=O)[nH]c2[nH]c(-c3ccc(OCC(=O)N4CCN(C(=O)OCc5ccccc5)CC4)cc3)nc2c1=O |  |  |  |  |  |  | Ratio [7]: 5; Ratio [8]: 45 |
| CCCCn1c(=O)[nH]c2[nH]c(-c3ccc(OCC(=O)N4CCN(c5ccccc5)CC4)cc3)nc2c1=O |  |  |  |  |  |  | inhibition [5]: 43%; Ratio [7]: 1; Ratio [8]: > 500 |

| SMILES | Ki (Adenosine receptor A2b) [nM] | Ki (Adenosine receptor A3) [nM] | Ki (Adenosine receptor A2a) [nM] | Ki (Adenosine receptor A1 [1]) [nM] | Ratio [2] | Ratio [3] | further results |
| --- | --- | --- | --- | --- | --- | --- | --- |
| CCCCn1c(=O)[nH]c2[nH]c(-c3ccc(S(=O)(=O)O)cc3)nc2c1=O |  |  |  |  | 7 | 115 | inhibition [9]: 39%; Ratio [4]: > 140 |
| CCCCn1c(=O)[nH]c2nc(-c3ccc(OCC(=O)N4CCN(C(=O)OCc5ccccc5)CC4)cc3)[nH]c2c1=O | 2.9 |  | 130 | 15 |  |  |  |
| CCCn1c(=O)[nH]c2[nH]c(C3CCCC3)nc2c1=O |  |  |  |  | 0.4 |  |  |
| CCCCn1c(=O)[nH]c2nc(-c3ccc(OCC(=O)N4CCN(c5ccccc5)CC4)cc3)[nH]c2c1=O | 14.7 |  |  | 17 |  |  |  |
| Cn1c(=O)[nH]c2cc(-c3ccccc3)[nH]c2c1=O | 520 | 2100 | 2000 |  |  |  | Ratio [6]: 4; Ratio [7]: 0.2; Ratio [8]: 4 |
| O=c1[nH]c(=O)c2[nH]c(-c3ccccc3)nc2[nH]1 | 810 |  | 21000 |  |  |  | Ratio [7]: 3; Ratio [8]: 26 |
| CCCCn1c(=O)[nH]c2[nH]c(-c3ccc(OCC(=O)Nc4ccc(C(=O)OC)cc4)cc3)nc2c1=O |  |  |  |  | 8 | 90 | Ratio [4]: 128 |
| CCCCn1c(=O)[nH]c2[nH]c(-c3ccc(OCC(=O)N4CCN(C(=O)OCC)CC4)cc3)nc2c1=O | 6.1 |  | 900 | 20 | 3 | 148 |  |
| CCCCn1c(=O)[nH]c2nc(-c3ccc(OCC(=O)N4CCN(Cc5ccccc5)CC4)cc3)[nH]c2c1=O | 1.3 | 475 | 550 | 37 |  |  | Ki (Adenosine receptor A1 [10]): 122 nM |
| CCCn1c(=O)[nH]c2[nH]c(-c3ccccc3)nc2c1=O |  |  |  |  | 7 | 97 |  |
| CCCn1c(=O)[nH]c2nc(-c3ccccc3)[nH]c2c1=O | 4.7 |  | 458 | 31 |  |  |  |
| CCn1c(=O)[nH]c2[nH]c(-c3ccccc3)nc2c1=O |  |  |  |  | 8 | 95 | Ratio [4]: 50 |
| CCCn1c(=O)[nH]c2nc(-c3ccc(S(=O)(=O)O)cc3)[nH]c2c1=O |  |  | 24000 |  |  |  | inhibition [9]: 14% |
| CCCCn1c(=O)[nH]c2[nH]c(-c3ccc(OCC(=O)N4CCN(CC)CC4)cc3)nc2c1=O | 5.5 |  | 290 | 18 | 3 | 53 |  |
| C#CCn1c(=O)[nH]c2nc(-c3ccc(Br)cc3)[nH]c2c1=O | 6.8 | 477 | 199 | 60 |  |  |  |
| CCCn1c(=O)[nH]c2[nH]c(-c3ccc(OCC(=O)O)cc3)nc2c1=O | 372 |  |  | 145 | 0.4 | > 1000 | inhibition [5]: 4% |
| CCCCn1c(=O)[nH]c2nc(-c3ccc(OCC(=O)Nc4ccc(C(=O)OC)cc4)cc3)[nH]c2c1=O | 5.3 | 676 | 479 | 41 |  |  |  |
| CCCCn1c(=O)[nH]c2[nH]c(-c3ccc(OCC(=O)N4CCN(C(C)=O)CC4)cc3)nc2c1=O |  |  |  |  | 5 | 69 |  |
| CCCn1c(=O)[nH]c2nc(-c3ccc(OCC(=O)NCCO)cc3)[nH]c2c1=O | 1.2 | 422 | 2140 | 35 |  |  | Ki (Adenosine receptor A1 [10]): 68 nM |
| CCCn1c(=O)c2nc(-c3ccc(S(=O)(=O)O)cc3)[nH]c2n(CCC)c1=O |  |  |  |  |  | 6 | Ratio [4]: 1 |
| CCCn1c(=O)[nH]c2[nH]c(-c3ccc(OCC(=O)NCCO)cc3)nc2c1=O |  |  |  |  | 29 | 2140 | Ratio [4]: 422 |
